Broadly, the pIC50 is the negative decadic logarithm of the IC50, by convention in mol/L.

pIC50: −log10 of the molar value.

We go through one molecule from PubChem BioAssay AID1224911.

This assay addresses Serine/threonine-protein kinase PAK 2 (Homo sapiens) (UniProt Q13177). Put plainly: PubChem AID 1224911. To be noted: Caliper in vitro kinase assay, phosphorylated PAK2.

Chain of Serine/threonine-protein kinase PAK 2 (Homo sapiens) (Q13177 whole entry, looked up): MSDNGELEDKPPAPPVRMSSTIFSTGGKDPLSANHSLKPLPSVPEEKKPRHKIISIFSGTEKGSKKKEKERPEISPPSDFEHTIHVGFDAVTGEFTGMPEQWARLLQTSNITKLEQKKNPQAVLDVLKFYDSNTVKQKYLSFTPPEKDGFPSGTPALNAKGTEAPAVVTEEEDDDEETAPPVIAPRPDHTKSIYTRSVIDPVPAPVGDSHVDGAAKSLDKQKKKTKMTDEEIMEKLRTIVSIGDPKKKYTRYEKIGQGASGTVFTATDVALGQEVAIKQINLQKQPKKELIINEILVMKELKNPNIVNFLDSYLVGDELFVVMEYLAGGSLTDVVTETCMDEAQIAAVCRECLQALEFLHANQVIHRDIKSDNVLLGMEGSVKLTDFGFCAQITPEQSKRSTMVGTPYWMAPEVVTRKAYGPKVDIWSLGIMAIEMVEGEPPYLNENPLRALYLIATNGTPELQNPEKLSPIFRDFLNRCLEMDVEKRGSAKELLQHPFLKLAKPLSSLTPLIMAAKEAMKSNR

`CC(C)NC(=O)N1CC[C@H](N=C2Nc3cc(F)ccc3N(CC(F)F)c3ccc(Cl)cc32)C1`: the pIC50 was 6.14.
